Data set [1] has as its system HT29 cells. Briefly: Western blot of tyrosine residue phosphorylation. In kind it is cell-based, human. To be noted: most at proteins above 50 KDa. On the procedure: HT29 cells were seeded at a density of 5.0 × 10^4 cells/cm^2 in a Petri dish and treated with 50 nM of compound 4 for 48 h. Cells were then washed with PBS and incubated with the lysis buffer radio immunoprecipitation assay (RIPA) at 4 °C for 15 min with agitation. The proteins were quantified using the Bio-Rad protein assay (Bio-Rad, Hercules, CA, USA) and analyzed by SDS-PAGE and Western blot.
For the analysis of protein phosphorylation, protein samples (30 μg) were separated on 12% SDS-PAGE in Tris-glycine buffer by electrophoresis at 200 V for 1 h. […] Densitometric analysis was performed with ImageLab 6.1 software (Bio-Rad, Hercules, CA, USA), and bands were normalized to the respective total protein content. For SCD1 analysis, protein samples were resolved on a 10% gel in MOPS buffer at 200 V for 45 min. After electrophoresis and Western blot, the nitrocellulose membrane was incubated overnight at 4 °C with primary antibody anti-SCD1 (Biorbyt, Durham, NC, USA) diluted in PBS-TWEEN 20 0.1%. The membrane was incubated for 1 h with a secondary horseradish peroxidase-conjugated antibody (GE Healthcare, Chicago, IL, USA) and then detected as described above. Quantification was completed by a Fluor-S Max MultiImager (Bio-Rad, Hercules, CA, USA) using a β-tubulin signal as a control.
On the technique in general: In western blotting, separated proteins are transferred to a membrane and probed.

For a further data set, the system named is HeLa. Briefly: MTT assay, HeLa cells. In kind it is cell-based. The following applies: Homo sapiens, means of four experiments, na = not active, read-out: In vitro cytotoxic activity (IC50), HeLa. On the procedure: (§1) The human colorectal adenocarcinoma (Caco-2), human colorectal adenocarcinoma (HT29), normal human intestinal (I407), human cervical cancer (HeLa), human breast cancer (MCF7), human bone osteosarcoma (U2OS), and human acute T-cell leukemia (Jurkat J6) cell lines were purchased from American Type Culture Collection (ATCC, Manassas, VA, USA). Cells were cultured in RPMI 1640 medium (Labtek Eurobio, Milan, Italy), supplemented with 10% FCS (Euroclone, Milano, Italy) and 2 mM L-glutamine (Sigma-Aldrich, Milano, Italy), at 37 °C and in a 5% CO2 atmosphere. The compounds were dissolved in DMSO in a 30–40 mM stock solution. In cell treatments, the final DMSO concentration never exceeded 0.1%.
(§2) Cells were seeded in a 96-well culture plastic plate (Sarsted, Milan, Italy), at 5 × 10^4 cells/well and, after 24 h, were exposed to increasing concentrations of the different compounds (from 1 nM to 500 nM) dissolved in RPMI 1640 medium. An MTT assay was performed according to Micheletti et al..
(§3) The absorbance at 570 nm was measured using a multi-well plate reader (Tecan, Männedorf, Switzerland), and data were analyzed by Prism GraphPad 8 software and expressed as IC50 nM.
Background: Tetrazolium assays rely on reduction of a dye to a coloured formazan, in cell work by metabolically active cells.

Data set [2] has as its system HT29 cells. Briefly: ROS assay (DClFDA staining). To be noted: 24 h treatment. It is filed as cell-based, human. On the procedure:
ROS were detected by DClFDA staining. This probe is not fluorescent and is permeable to alive cells, where the acetometoxyesther is cleaved by the […] intracellular estherases. This product is made fluorescent by the concomitant action of ROS, which peroxidize the molecule. The intensity of the fluorescence is, therefore, proportional to the production of intracellular ROS. HT29 cells were grown on a 96-well black plate, treated for 24 h with 4, washed in Hanks’ buffer, stained with 2 µM DClFDA, and incubated at 37 °C in the dark for 30 min. Negative controls were treated in the same way, but DClFDA was not added to these samples. The cells were washed in fresh Hanks’ buffer and resuspended in Hanks’ buffer containing Hoechst 33342 1 µg/mL to stain cell nuclei, to evaluate the cell density in the wells. The fluorescences were read with the plate reader Ensight (Perkin Elmer, Waltham, MA, USA) with excitation wavelengths, respectively, 488 nm for DClF and 360 nm for Hoechst and emission wavelength 535 nm for DClF and 454 for Hoechst 33342. The intensity of DClF fluorescence was normalized on Hoechst fluorescence and is expressed in Arbitrary Units (AU).

The test system of data set [3] is HT29 cells. Briefly: Neutral lipid staining (LipidTOX), confocal microscopy. It is filed as cell-based, human. The following applies: 50 nM, 48 h. As to the method:
HT29 cells were grown on glass coverslips, treated as described above, and then washed three times with PBS. The intracellular accumulation of neutral lipids was assessed using LipidTOX™ Red Neutral Lipid Dye (Thermo Fisher Scientific, Waltham, MA, USA) according to the manufacturer’s indications. Specimens embedded in Mowiol were analyzed by confocal microscopy using a Nikon C1si confocal microscope (Nikon, Tokyo, Japan). Fluorescence was excited with a laser tuned at 595 nm, and detected at 650 nm.

The next data set relates to FASN. Briefly: FASN mRNA expression, qRT-PCR. In kind it is cell-based, human. To be noted: after 6 h of treatment, HT29. As to the method: Total RNA from control- and 4-treated HT29 cells was isolated using the RNeasy Mini Kit (Qiagen, Hilden, Germany) according to the manufacturer's protocol. RNA was quantified using the NanoDrop spectrophotometer (Thermo Fisher Scientific, Waltham, MA, USA). RNA (1 μg) was transcribed into cDNA using the PrimeScript RT Master Mix (Perfect Real Time) (Takara Bio, Kusatsu, Japan) according to the manufacturer's instructions. Real-time PCR was performed using the Sybr Premix Ex Taq Takara kit (Takara Bio, Kusatsu, Japan) and the LightCycler 2.0 instrument (Roche Diagnostic, Basel, Switzerland). The following primers (Sigma-Aldrich, Milan, Italy) were used: [NT] (forward) and [NT] (reverse) for FASN detection, [NT] (forward) and [NT] (reverse) for SCD1 detection, and [NT] (forward) and [NT] (reverse) for the detection of β-actin. The first gene analyzed was the housekeeping gene β-actin, and its CT values were used as standards in the ΔΔCT method of result analysis. cDNA samples from HT29-treated cells were compared with untreated control cells.

A short description of another data set: MTT assay, Caco-2 cells. In kind it is cell-based, human. To be noted: human, versus normal I407 cells, read-out: S.I. (Selective Index), Caco-2. As to the method: as §1, §2, §3
A further data set relates to J6. The experiment in a line: MTT assay, Jurkat J6 cells. It is filed as cell-based. To be noted: Homo sapiens, means of four experiments, na = not active, read-out: In vitro cytotoxic activity (IC50), J6. On the procedure:
as §1, §2, §3

Data set [4] concerns HT29 cells. Briefly: Cellular content of total magnesium (DCHQ5 assay). To be noted: 24 h treatment. It is filed as cell-based, human. On the procedure: To evaluate the total magnesium, the fluorimetric DCHQ5 assay was performed according to Nature Protocol. Briefly, the cells were washed in PBS without Mg and Ca three times, accurately counted, and sonicated at 100 W. A standard curve was prepared with a concentration of MgCl2 between 0.5 and 5 µM in buffer MOPS 2 mM in 50% MetOH. The fluorescent probe DCHQ5 15 µM was added, and the fluorescence was recorded on a PTI Quanta Master C60/2000 spectrofluorometer (Photon Technology International, Inc., Birmingham, NJ, USA). A total of 200 µL of the samples was diluted in the MOPS MetOH buffer, DCHQ5 15 µM was added, and the fluorescence was recorded. The amount of Mg was evaluated by interpolating the fluorescence of the sample with respect to the standard curve expressed as nmoles of magnesium/10^6 cells.

The structures appear in SMILES notation.

A word on the IC50: it is the midpoint of a concentration-inhibition curve. Consider `CCCCCCCCC[C@H](CCCCCCCC(=O)O)O[Si](C)(C)C(C)(C)C` [Compound 4, (R)-9-((tert-butyldimethylsilyl)oxy)octadecanoic acid], for which the “phosphorylation levels at tyrosine residues of proteins” value in the data set with HT29 cells [1] is reported as “decrease in phosphorylation levels”. Moreover, the values for the IC50 in the data set with HeLa and in the data set with J6 were 166.1 ± 0.33 nM and 214.1 ± 0.26 nM, respectively. In the data set with HT29 cells [2], the “change in ROS content” value is reported as “does not lead to a change”. In the data set with HT29 cells [3], the “accumulation of lipid droplets (neutral lipids)” value is listed as “significantly reduces”. Besides, the FASN gene expression result in the data set with FASN was “marked down-regulation”. For the same compound, the selectivity ratio in “MTT assay, Caco-2 cells” is 2.65. For the same compound, the “reduction in the Mg content” value in the data set on HT29 cells [4] is −40%.

The values above are taken from article PMC11820896, “New Compounds with Enhanced Biological Activity Through the Strategic Introduction of Silylated Groups into Hydroxystearic Acids” (Molecules, 2025).
